Experimental data reported in US20230057699A1, “NANOTECHNOLOGY-BASED PESTICIDES AND INTERMEDIATES, COMPOSITIONS AND TREATMENTS USING THE SAME” (priority 2020, published 2023).
Values joined by “and” are separate entries in the source; they are usually repeats but may differ in a detail not shown here. Identical values can stand only once. Like-named read-outs stand apart in the source and are kept apart here.

Assays:
Daphnia magna [1] = assay: Daphnia magna acute 48-hour survival test
Experimental: FIG. 22 depicts a Daphnia magna 48-hour (acute) toxicity test.
This mirrors OECD 202, Daphnia sp. Reproduction Test. […] Daphnia were cultured in a beaker (500 mL) using 16:8 h day:night cycle at 20±2° C. under the diffused cool LED lighting.

Daphnia magna [2] = assay: Daphnia magna chronic 21-day reproduction test; type: in vivo
Description: FIG. 23 depicts a Daphnia magna 21-day (chronic) reproduction test.
This mirrors OECD 202, Daphnia sp. Reproduction Test.

E. coli DH5α [3] = assay: Surface interaction with bacterial cells (imaging); type: cell-based, Escherichia coli; conditions: 10 mg/L (as total Ag), 72 h
Experimental: (§1) FIG. 8 depicts the antimicrobial effects of positively charged NH2—AgNPs compared with carboxylate/citrate AgNPs (cit-AgNPs) and Ag^+ ions on E. coli DH5α and K12 growth (panel A), and the effects of the surface interaction of 10 mg/L (equivalent to 10 ppm) NH2—AgNPs compared with the effects of the surface interaction of Cit-AgNPs and Ag^+ ions on E. coli DH5α (panel B).

[4] = tested on: Pseudokirchneriella subcapitata; assay: Green alga total chlorophyll (a+b) analysis; type: cell-based
Experimental: Control group (panel A) received only growth medium (100 mL). Chlorophylls (a and b) were extracted using a 95% ethanol method and measured using an UV-Vis spectrophotometer (Hach DR6000). Each treatment received 1.2×10^6 cells/mL on day-0 and were allowed to grow until day-28 when the experiments were halted. Chlorophylls were recorded on day-7 (acute), day-14 and day-28 (chronic).
(§2) 1.a. […] Experiments were repeated twice for NoPest-Ag5, Ag+ ions and control groups, and data were combined. Algae were cultured in an Erlenmeyer flask with 100 mL growth media using a16:8 h day:night cycle at 25±2° C. under the LED lighting of 4830 lux. Microscopic analysis coupled with hemocytometer was used to measure cell growth, and total chlorophyll (chlorophyll [a+b]) was used to measure primary productivity, in algae.
1.b. Chlorophyll analysis: Chlorophylls (a and b) were extracted using 95% ethanol method, measured using UV-Vis spectrophotometer (Hach DR6000), and reported as total chlorophyll (a+b).

E. coli DH5α [5] = assay: Antimicrobial growth curves; type: cell-based, Escherichia coli; conditions: 10 ppm
Experimental: as §1

E. coli K12 = assay: Antimicrobial growth curves; type: cell-based, Escherichia coli; conditions: 10 ppm
Experimental: as §1

Corn (Zea mays) seeds = assay: Corn seed germination; conditions: 0.25-50 mg/L, 7 days
Soybean seeds = assay: Soybean seedling biomass; type: in vivo, Glycine max; conditions: 0.2-50 mg/L, day-7
Description: FIG. 13 depicts the effect of exposure to NH2—AgNPs on soybean seedling biomass.

[6] = tested on: Pseudokirchneriella subcapitata; assay: Green alga cell growth (cell count); type: cell-based
Experimental: Control group (panel A) received only growth medium (100 mL). Each treatment received 1.2×10^6 cells/mL on day-0 and were allowed to grow until day-28 when the experiments were halted. Cell count was recorded on day-7 (acute), day-14 and day-28 (chronic).
as §2

soybean seed = assay: Soybean seed germination; conditions: 0.25-50 mg/L, 7 days
[7] = tested on: honeybee, Apis mellifera L.; assay: Honeybee 48-hour contact (dermal) exposure test (OECD 214); type: in vivo; conditions: for 48-hour Mortality: per replicate of 10 bees, listed as Positive Control
Experimental: (§3) Pollinators, especially honeybees, are susceptible to certain insecticides. Understanding the susceptibility of honeybees will determine the test substance's safe use in the environment as well as when the product should be used in relation to honeybee activity.
Honeybee 48-hour Contact (Dermal) Exposure Test Contact exposure followed OECD Test 214 method. Young adult worker honeybees were exposed to six test doses ranging from 0.1 to 40 ng a.i./bee administered topically to the dorsal side of the thorax of each bee in a 2 μL droplet of water containing 1% Tween 80 surfactant. A negative control group and a surfactant control group were maintained concurrently. Additional groups of bees from the same source were nominally dosed with imidacloprid, at 0.032, 0.08 and 0.2 μg a.i./bee as a positive control substance. The positive control test was conducted concurrently with the definitive test and the bees were administered topically to the dorsal side of the thorax of each bee in a 2.0 μL droplet with water containing […] surfactant. Three replicate test chambers were maintained in each control and treatment group, with 10 bees in each test chamber. Observations of mortality and other signs of toxicity were made for approximately 48 hours after dosing. Cumulative mortality observed in the test groups was used to determine the LD50.

[8] = tested on: honeybee, Apis mellifera L.; assay: as above; type: in vivo; conditions: 0.008 μg a.i./bee [4 mg a.i./L], per replicate of 10 bees, listed as Positive Control
[9] = tested on: honeybee, Apis mellifera L.; assay: Honeybee 48-hour oral exposure test (OECD 213); type: in vivo; conditions: for 48-hour Mortality: per replicate of 10 bees; for Consumption after 6 hours: Consumed: per replicate, 200 μL provided
Experimental: as §3
Honeybee 48-hour Oral Exposure Test: Oral exposure followed OECD Test 213 method. […] The test included nominal test item doses ranging from 1 to 400 ng a.i./bee (ppt a.i./bee) and a concurrent negative control group. Additional groups of bees from the same source were dosed with imidacloprid, at 0.0013, 0.0032 and 0.008 μg a.i./bee (ppb a.i./bee) as a positive control substance, also conducted concurrently. Three replicate test chambers were maintained in each control and treatment group, with 10 bees in each test chamber. Observations of mortality and other signs of toxicity were made for approximately 48 hours after dosing. Cumulative mortality observed in the test groups was used to determine the LD50 (lethal dose that kills 50% of the test populations).

[10] = 0.032 μg a.i./bee [16 mg a.i./L]
[11] = 0.2 μg a.i./bee [100 mg a.i./L]
[12] = 0.0013 μg a.i./bee [0.0065 mg a.i./L]
[13] = 0.0032 μg a.i./bee [0.016 mg a.i./L]
[14] = 0.0032 μg a.i./bee [0.016 mg a.i./L], listed as Positive Control
[15] = 0.008 μg a.i./bee [0.04 mg a.i./L]
[16] = 0.008 μg a.i./bee [0.04 mg a.i./L], listed as Positive Control

[Cu+2] [Cu^2+ ions]
Mean survival (Daphnia magna [1]; 0.5 mg/L): 0%

[Ag+] [Ag^+ ions]
Mean decrease in reproduction (Daphnia magna [2]; 0.01 mg/L): 6.6% | Mean increase in reproduction (Daphnia magna [2]; concentrations except 0.01 mg/L): 126.6-1120% | Cell integrity after surface interaction (E. coli DH5α [3]): intact cells were observed, but with a shape change to a hexagonal honeycomb like phenotype lacking adherent fimbriae | Toxicity by total chlorophyll ([4]; 10 mg/L): less toxic compared to NoPest-Ag5 | Nature of effect based on growth curves (E. coli DH5α [5]): bacteriostatic effects | Nature of effect based on growth curves (E. coli K12): bacteriostatic effects | Toxicity in germination of corn (Corn (Zea mays) seeds): non-toxic | Seedling biomass compared to control (water only) (Soybean seeds): promoted seedling biomass | Comparative toxicity of all four test compounds (cell count) [6]: most toxic | Algal growth compared to control (cell count) ([6]; at or above 1 mg/L): inhibited algal growth | Toxicity in germination of soybean (soybean seed): non-toxic

[Cd+2] [Cd^2+ ions]
Chlorophyll synthesis ([4]; 0.05-0.75 mg/L): chlorophyll synthesis did occur | Chlorophyll synthesis compared to control ([4]; at or above 1 mg/L): inhibited chlorophyll synthesis | Algal growth compared to control (cell count) ([6]; 0.5 mg/L): stimulatory | Algal toxicity (cell count) ([6]; at or above 0.75 mg/L): toxicity of Cd^2+ ions increased

O=[N+]([O-])NC1=NCCN1Cc1ccc(Cl)nc1 [Imidacloprid]
Reproduction compared with control (Daphnia magna [2]): not significantly different from control | 48-hour Mortality Mean ([7]; 0.008 μg a.i./bee [4 mg a.i./L]): 10% | 48-hour Mortality Mean [7, 10]: 33% | 48-hour Mortality [7, 10]: 40% and 10% and 50% | 48-hour Mortality Mean [7, 11]: 77% | 48-hour Mortality [7, 11]: 70% and 100% and 60% | Surviving bees that appeared lethargic ([7]; 24 lethargic out of 54 surviving bees): 46.3% | LD50 ([7]; 48-hour): 0.11 μg a.i./bee | Average mortality ([7]; 48-hr, positive control doses, n=30 bees per concentration): 10%-77% | Mean survival (Daphnia magna [1]; all concentrations tested): 66.6-86.6% | 48-hour Mortality [8]: 0% and 20% and 10% | Comparative toxicity of all four test compounds (chlorophyll) [4]: least toxic | Toxicity by total chlorophyll [4]: generally non-toxic | 48-hour Mortality Mean [9, 12]: 0% | Consumption after 6 hours: Consumed, Mean [9, 12]: 198 µL | 48-hour Mortality [9, 12]: 0% | Consumption after 6 hours: Consumed ([9]; 0.0013 μg a.i./bee [0.0065 mg a.i./L], listed as Positive Control): 200 μL (2×) and 195 μL | 48-hour Mortality Mean [9, 13]: 3% | Consumption after 6 hours: Consumed, Mean [9, 13]: 163 µL | 48-hour Mortality [9, 14]: 0% (2×) and 10% | Consumption after 6 hours: Consumed [9, 14]: 140 µL and 150 µL and 200 µL | 48-hour Mortality Mean [9, 15]: 7% | Consumption after 6 hours: Consumed, Mean [9, 15]: 88 µL | 48-hour Mortality [9, 16]: 0% (2×) and 20% | Consumption after 6 hours: Consumed [9, 16]: 85 µL and 110 µL and 70 µL | Average survival ([9]; 48-hr, 0.0013-0.008 μg a.i./bee): 93%-97% | Appearance of surviving bees at test termination ([9]; 48 hours): appeared normal | Mean consumption per replicate ([9]; positive control groups): 88 to 198 µL | Comparative toxicity of all four test compounds (cell count) [6]: least toxic | Algal toxicity based on cell count ([6]; all concentrations tested): generally non-toxic, except at a high concentration of 100 mg/L | Cell growth ([6]; by day-28): concentration-dependent inhibition above 1 mg/L
